Test results from US20240294533A1, “2-(HET)ARYL-SUBSTITUTED CONDENSED HETEROCYCLE DERIVATIVES AS PEST CONTROL AGENTS” (Bayer Aktiengesellschaft, priority 2021, published 2024).

Assays:
Format in all cases: in vivo
[1] = tested on: Nezara viridula; experiment: Nezara viridula spray test (infected barley plants sprayed); conditions: 100 g ai/ha, after 4 days
Excerpt: Nezara viridula—Spray Test Solvent: 52.5 parts by weight of acetone • 7 parts by weight of dimethylformamide Emulsifier: alkylaryl polyglycol ether An appropriate active ingredient formulation is produced by dissolving 1 part by weight of active ingredient with the stated parts by weight of solvent and making the solution up to the desired concentration with water containing an emulsifier concentration of 1000 ppm. Further test concentrations are produced by diluting the formulation with emulsifier-containing water. If the addition of ammonium salts or/and penetrants is required, these are each added in a concentration of 1000 ppm to the formulation solution. Barley plants (Hordeum vulgare) infected with larvae of the Southern green shield bug (Nezara viridula) are sprayed with an active ingredient formulation of the desired concentration. After 4 days, efficacy in % is determined. 100% means that all of the shield bugs have been killed; 0% means that none of the shield bugs have been killed.

[2] = tested on: Spodoptera frugiperda; experiment: Spodoptera frugiperda spray test (SPODFR), comparative; conditions: 168 h, cotton leaves, after 7 days, read-out: % Efficacy
Excerpt: Spodoptera frugtiperda—Spray Test (SPODFR) Solvent: 14 parts by weight of dimethylformamide Emulsifier: alkylaryl polyglycol ether An appropriate active ingredient formulation is produced by dissolving 1 part by weight of active ingredient with the stated parts by weight of solvent and making the solution up to the desired concentration with water containing an emulsifier concentration of 1000 ppm. Further test concentrations are produced by diluting the formulation with emulsifier-containing water. If the addition of ammonium salts or/and penetrants is required, these are each added in a concentration of 1000 ppm to the formulation solution. Cotton leaves (Gossypium hirsutum) are sprayed with an active ingredient formulation of the desired concentration and populated with caterpillars of the armyworm (Spodoptera frugiperda). After 7 days, the kill in % is determined. 100% means that all caterpillars have been killed; 0% means that none of the caterpillars have been killed.

[3] = tested on: Diabrotica balteata; experiment: Diabrotica balteata drench test; conditions: 20 ppm, soil drench, maize, after 8 days
Excerpt: Diabrotica balteata—Drench Test Solvent: 7 parts by weight of dimethylformamide Emulsifier: 2 parts by weight of alkylaryl polyglycol ether An appropriate active ingredient formulation is produced by mixing 1 part by weight of active ingredient with the specified amounts of solvent and emulsifier, and diluting the concentrate to the desired concentration with water, it being necessary to take account of the volume of soil which is drenched. It should be ensured that a concentration of 40 ppm of emulsifier in the soil is not exceeded. Further test concentrations are produced by diluting with water. 5 […] (Zea mays) in each case are sown into pots filled with earth, and the next day the pots are watered with the active ingredient preparation of the desired concentration. After one day, about 25 L2 larvae of the banded cucumber beetle (Diabrotica balteata) are added. After 8 days, efficacy in % is determined. 100% means that all 5 plants have germinated and grown; 0% means that none of the plants has emerged.

CCS(=O)(=O)c1ccc(-n2ncn(-c3ccc(Cl)cc3)c2=O)nc1-c1nc2cc(C(F)(F)C(F)(F)F)cnc2n1C [Example I-23]
100%: efficacy [1] | Emax at 0.8 ppm [2] | efficacy [3]
